Article PMC10817531, “Chlorinated Enyne Fatty Acid Amides from a Marine Cyanobacterium: Discovery of Taveuniamides L-M and Pharmacological Characterization of Taveuniamide F as a GPCR Antagonist with CNR1 Selectivity” (Marine Drugs, 2023)

Columns and labels:
Test in all cases: PathHunter β-arrestin GpcrMAX assay
Format in all cases: cell-based
HTR1F = biological target: T1, HTR1F (Homo sapiens, UniProt P30939)
T1 construct: purchased DiscoveRx (Eurofins) gpcrMAX PathHunter β-arrestin panel
Summary of the method: (§1)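 The biosensor panel measured β-arrestin recruitment through enzyme fragment complementation. Taveuniamide F was applied at 20 µM in agonist as well as antagonist format.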

GPR109B = biological target: T2, GPR109B (Homo sapiens, UniProt P49019)
T2 construct: purchased DiscoveRx (Eurofins) gpcrMAX PathHunter β-arrestin panel
Summary of the method: as §1

EBI2 = biological target: T3, EBI2 (Homo sapiens, UniProt P32249)
T3 construct: purchased DiscoveRx (Eurofins) gpcrMAX PathHunter β-arrestin panel
Summary of the method: as §1

CXCR6 = biological target: T4, CXCR6 (Homo sapiens, UniProt O00574)
T4 construct: purchased DiscoveRx (Eurofins) gpcrMAX PathHunter β-arrestin panel
Summary of the method: as §1

OPRK1 = biological target: T5, OPRK1 (Homo sapiens, UniProt P41145)
T5 construct: purchased DiscoveRx (Eurofins) gpcrMAX PathHunter β-arrestin panel
Summary of the method: as §1

RXFP3 = biological target: T6, RXFP3 (Homo sapiens, UniProt Q9NSD7)
T6 construct: purchased DiscoveRx (Eurofins) gpcrMAX PathHunter β-arrestin panel
Summary of the method: as §1

HTR1E = biological target: T7, HTR1E (Homo sapiens, UniProt P28566)
T7 construct: purchased DiscoveRx (Eurofins) gpcrMAX PathHunter β-arrestin panel
Summary of the method: as §1

CCR10 = biological target: T8, CCR10 (Homo sapiens, UniProt P46092)
T8 construct: purchased DiscoveRx (Eurofins) gpcrMAX PathHunter β-arrestin panel
Summary of the method: as §1

CALCRL-RAMP1 = CALCRL-RAMP1 (Homo sapiens, UniProt O60894+Q16602)
Summary of the method: as §1

ADRA1B = biological target: T9, ADRA1B (Homo sapiens, UniProt P35368)
T9 construct: purchased DiscoveRx (Eurofins) gpcrMAX PathHunter β-arrestin panel
Summary of the method: as §1

OXER1 = biological target: T10, OXER1 (Homo sapiens, UniProt Q8TDS5)
T10 construct: purchased DiscoveRx (Eurofins) gpcrMAX PathHunter β-arrestin panel
Summary of the method: as §1

F2R = biological target: T11, F2R (Homo sapiens, UniProt P25116)
T11 construct: purchased DiscoveRx (Eurofins) gpcrMAX PathHunter β-arrestin panel
Summary of the method: as §1

SCTR = biological target: T12, SCTR (Homo sapiens, UniProt P47872)
T12 construct: purchased DiscoveRx (Eurofins) gpcrMAX PathHunter β-arrestin panel
Summary of the method: as §1

SSTR3 = biological target: T13, SSTR3 (Homo sapiens, UniProt P32745)
T13 construct: purchased DiscoveRx (Eurofins) gpcrMAX PathHunter β-arrestin panel
Summary of the method: as §1

CALCR-RAMP3 = CALCR-RAMP3 (Homo sapiens, UniProt O60896+P30988)
Summary of the method: as §1

AGTRL1 = AGTRL1 (Homo sapiens, UniProt P35414)
Summary of the method: as §1

PTGFR = biological target: T14, PTGFR (Homo sapiens, UniProt P43088)
T14 construct: purchased DiscoveRx (Eurofins) gpcrMAX PathHunter β-arrestin panel
Summary of the method: as §1

GIPR = biological target: T15, GIPR (Homo sapiens, UniProt P48546)
T15 construct: purchased DiscoveRx (Eurofins) gpcrMAX PathHunter β-arrestin panel
Summary of the method: as §1

CMKLR1 = biological target: T16, CMKLR1 (Homo sapiens, UniProt Q99788)
T16 construct: purchased DiscoveRx (Eurofins) gpcrMAX PathHunter β-arrestin panel
Summary of the method: as §1

GPR109A = biological target: T17, GPR109A (Homo sapiens, UniProt Q8TDS4)
T17 construct: purchased DiscoveRx (Eurofins) gpcrMAX PathHunter β-arrestin panel
Summary of the method: as §1

CCKBR = biological target: T18, CCKBR (Homo sapiens, UniProt P32239)
T18 construct: purchased DiscoveRx (Eurofins) gpcrMAX PathHunter β-arrestin panel
Summary of the method: as §1

CCR5 = biological target: T19, CCR5 (Homo sapiens, UniProt P51681)
T19 construct: purchased DiscoveRx (Eurofins) gpcrMAX PathHunter β-arrestin panel
Summary of the method: as §1

NMBR = biological target: T20, NMBR (Homo sapiens, UniProt P28336)
T20 construct: purchased DiscoveRx (Eurofins) gpcrMAX PathHunter β-arrestin panel
Summary of the method: as §1

C5L2 = C5L2 (Homo sapiens, UniProt Q9P296)
Summary of the method: as §1

TRHR = biological target: T21, TRHR (Homo sapiens, UniProt P34981)
T21 construct: purchased DiscoveRx (Eurofins) gpcrMAX PathHunter β-arrestin panel
Summary of the method: as §1

GALR2 = biological target: T22, GALR2 (Homo sapiens, UniProt O43603)
T22 construct: purchased DiscoveRx (Eurofins) gpcrMAX PathHunter β-arrestin panel
Summary of the method: as §1

PROKR1 = biological target: T23, PROKR1 (Homo sapiens, UniProt Q8TCW9)
T23 construct: purchased DiscoveRx (Eurofins) gpcrMAX PathHunter β-arrestin panel
Summary of the method: as §1

OPRM1 = biological target: T24, OPRM1 (Homo sapiens, UniProt P35372)
T24 construct: purchased DiscoveRx (Eurofins) gpcrMAX PathHunter β-arrestin panel
Summary of the method: as §1

DRD4 = biological target: T25, DRD4 (Homo sapiens, UniProt P21917)
T25 construct: purchased DiscoveRx (Eurofins) gpcrMAX PathHunter β-arrestin panel
Summary of the method: as §1

BDKRB1 = BDKRB1 (Homo sapiens, UniProt P46663)
Summary of the method: as §1

F2RL3 = biological target: T26, F2RL3 (Homo sapiens, UniProt Q96RI0)
T26 construct: purchased DiscoveRx (Eurofins) gpcrMAX PathHunter β-arrestin panel
Summary of the method: as §1

NPY2R = biological target: T27, NPY2R (Homo sapiens, UniProt P49146)
T27 construct: purchased DiscoveRx (Eurofins) gpcrMAX PathHunter β-arrestin panel
Summary of the method: as §1

CRTH2 = biological target: T28, CRTH2 (Homo sapiens, UniProt Q9Y5Y4)
T28 construct: purchased DiscoveRx (Eurofins) gpcrMAX PathHunter β-arrestin panel
Summary of the method: as §1

CCR6 = biological target: T29, CCR6 (Homo sapiens, UniProt P51684)
T29 construct: purchased DiscoveRx (Eurofins) gpcrMAX PathHunter β-arrestin panel
Summary of the method: as §1

CALCRL-RAMP2 = CALCRL-RAMP2 (Homo sapiens, UniProt O60895+Q16602)
Summary of the method: as §1

SSTR2 = biological target: T30, SSTR2 (Homo sapiens, UniProt P30874)
T30 construct: purchased DiscoveRx (Eurofins) gpcrMAX PathHunter β-arrestin panel
Summary of the method: as §1

MC3R = biological target: T31, MC3R (Homo sapiens, UniProt P41968)
T31 construct: purchased DiscoveRx (Eurofins) gpcrMAX PathHunter β-arrestin panel
Summary of the method: as §1

CXCR7 = biological target: T32, CXCR7 (Homo sapiens, UniProt P25106)
T32 construct: purchased DiscoveRx (Eurofins) gpcrMAX PathHunter β-arrestin panel
Summary of the method: as §1

NPFFR1 = biological target: T33, NPFFR1 (Homo sapiens, UniProt Q9GZQ6)
T33 construct: purchased DiscoveRx (Eurofins) gpcrMAX PathHunter β-arrestin panel
Summary of the method: as §1

DRD3 = biological target: T34, DRD3 (Homo sapiens, UniProt P35462)
T34 construct: purchased DiscoveRx (Eurofins) gpcrMAX PathHunter β-arrestin panel
Summary of the method: as §1

CHRM2 = biological target: T35, CHRM2 (Homo sapiens, UniProt P08172)
T35 construct: purchased DiscoveRx (Eurofins) gpcrMAX PathHunter β-arrestin panel
Summary of the method: as §1

LHCGR = biological target: T36, LHCGR (Homo sapiens, UniProt P22888)
T36 construct: purchased DiscoveRx (Eurofins) gpcrMAX PathHunter β-arrestin panel
Summary of the method: as §1

T7 sequence (P28566 whole entry): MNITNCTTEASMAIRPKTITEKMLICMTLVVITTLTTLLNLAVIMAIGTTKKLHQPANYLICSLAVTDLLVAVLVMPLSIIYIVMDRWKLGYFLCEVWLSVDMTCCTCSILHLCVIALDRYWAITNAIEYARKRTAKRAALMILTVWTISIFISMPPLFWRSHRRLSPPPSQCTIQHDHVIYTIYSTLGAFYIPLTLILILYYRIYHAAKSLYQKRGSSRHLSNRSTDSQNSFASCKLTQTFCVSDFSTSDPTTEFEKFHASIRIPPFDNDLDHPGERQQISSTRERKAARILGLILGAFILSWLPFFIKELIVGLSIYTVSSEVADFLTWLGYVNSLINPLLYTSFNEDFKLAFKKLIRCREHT
T10 sequence (Q8TDS5 whole entry): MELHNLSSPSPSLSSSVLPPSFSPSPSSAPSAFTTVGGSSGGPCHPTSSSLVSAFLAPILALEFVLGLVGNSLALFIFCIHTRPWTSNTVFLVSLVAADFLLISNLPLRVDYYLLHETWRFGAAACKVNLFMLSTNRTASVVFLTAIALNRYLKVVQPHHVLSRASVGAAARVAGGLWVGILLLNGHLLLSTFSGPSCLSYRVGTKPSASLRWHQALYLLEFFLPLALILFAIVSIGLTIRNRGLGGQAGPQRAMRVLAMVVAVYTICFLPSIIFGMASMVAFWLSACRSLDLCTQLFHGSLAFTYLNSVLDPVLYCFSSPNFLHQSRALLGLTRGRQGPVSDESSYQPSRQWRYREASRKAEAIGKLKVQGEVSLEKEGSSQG
T26 sequence (Q96RI0 18-385): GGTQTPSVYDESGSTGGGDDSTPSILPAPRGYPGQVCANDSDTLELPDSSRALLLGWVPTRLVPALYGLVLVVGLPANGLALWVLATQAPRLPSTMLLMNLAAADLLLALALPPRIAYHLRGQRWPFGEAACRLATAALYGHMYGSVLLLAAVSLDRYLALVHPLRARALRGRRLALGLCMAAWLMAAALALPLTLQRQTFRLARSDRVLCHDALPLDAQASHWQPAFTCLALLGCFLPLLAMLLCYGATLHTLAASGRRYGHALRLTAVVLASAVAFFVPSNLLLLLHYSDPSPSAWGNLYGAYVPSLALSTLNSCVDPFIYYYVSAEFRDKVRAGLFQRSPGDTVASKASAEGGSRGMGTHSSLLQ
T33 sequence (Q9GZQ6 whole entry): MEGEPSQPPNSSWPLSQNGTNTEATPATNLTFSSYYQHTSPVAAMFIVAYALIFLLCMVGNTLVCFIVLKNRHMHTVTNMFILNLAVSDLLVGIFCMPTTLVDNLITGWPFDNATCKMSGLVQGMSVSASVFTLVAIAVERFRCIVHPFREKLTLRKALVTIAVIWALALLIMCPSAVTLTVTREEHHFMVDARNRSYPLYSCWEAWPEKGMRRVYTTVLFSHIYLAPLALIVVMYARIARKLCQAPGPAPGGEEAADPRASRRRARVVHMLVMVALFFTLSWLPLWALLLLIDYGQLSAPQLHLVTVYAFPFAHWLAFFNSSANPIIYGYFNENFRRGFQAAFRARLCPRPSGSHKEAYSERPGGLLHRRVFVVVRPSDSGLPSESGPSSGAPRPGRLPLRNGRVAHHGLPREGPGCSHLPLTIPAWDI
T18 sequence (P32239 whole entry): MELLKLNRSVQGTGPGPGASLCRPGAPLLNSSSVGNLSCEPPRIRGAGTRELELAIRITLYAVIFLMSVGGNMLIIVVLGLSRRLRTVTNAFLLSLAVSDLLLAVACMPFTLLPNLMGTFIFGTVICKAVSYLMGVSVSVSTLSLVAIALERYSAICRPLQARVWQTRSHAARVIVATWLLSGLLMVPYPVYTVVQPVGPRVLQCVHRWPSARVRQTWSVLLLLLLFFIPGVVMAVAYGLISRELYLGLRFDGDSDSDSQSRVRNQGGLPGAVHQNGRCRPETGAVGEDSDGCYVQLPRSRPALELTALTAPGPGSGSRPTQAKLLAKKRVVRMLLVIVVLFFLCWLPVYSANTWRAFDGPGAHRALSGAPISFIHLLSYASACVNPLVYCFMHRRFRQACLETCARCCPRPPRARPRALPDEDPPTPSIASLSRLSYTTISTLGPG
Sequence of AGTRL1 (P35414 whole entry): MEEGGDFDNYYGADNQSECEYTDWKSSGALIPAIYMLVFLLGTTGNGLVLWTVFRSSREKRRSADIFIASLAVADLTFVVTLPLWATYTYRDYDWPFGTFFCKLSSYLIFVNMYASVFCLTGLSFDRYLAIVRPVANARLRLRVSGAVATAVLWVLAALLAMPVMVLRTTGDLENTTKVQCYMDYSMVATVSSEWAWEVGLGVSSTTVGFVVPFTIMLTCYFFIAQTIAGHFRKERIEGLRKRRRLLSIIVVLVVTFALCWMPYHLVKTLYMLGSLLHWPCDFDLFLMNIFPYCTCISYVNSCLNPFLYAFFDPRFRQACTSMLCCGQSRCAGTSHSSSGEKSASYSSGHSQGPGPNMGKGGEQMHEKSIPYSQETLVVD
Sequence of BDKRB1 (P46663 whole entry): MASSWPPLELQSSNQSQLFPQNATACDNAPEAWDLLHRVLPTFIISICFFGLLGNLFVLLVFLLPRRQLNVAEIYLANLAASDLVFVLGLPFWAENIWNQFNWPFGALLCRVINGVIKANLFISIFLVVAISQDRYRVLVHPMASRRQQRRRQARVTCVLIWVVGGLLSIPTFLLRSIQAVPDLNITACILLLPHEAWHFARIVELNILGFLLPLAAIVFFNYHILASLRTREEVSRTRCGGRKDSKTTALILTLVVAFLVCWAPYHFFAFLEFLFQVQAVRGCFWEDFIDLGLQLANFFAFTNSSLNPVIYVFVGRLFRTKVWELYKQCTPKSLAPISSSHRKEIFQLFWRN
T23 sequence (Q8TCW9 whole entry): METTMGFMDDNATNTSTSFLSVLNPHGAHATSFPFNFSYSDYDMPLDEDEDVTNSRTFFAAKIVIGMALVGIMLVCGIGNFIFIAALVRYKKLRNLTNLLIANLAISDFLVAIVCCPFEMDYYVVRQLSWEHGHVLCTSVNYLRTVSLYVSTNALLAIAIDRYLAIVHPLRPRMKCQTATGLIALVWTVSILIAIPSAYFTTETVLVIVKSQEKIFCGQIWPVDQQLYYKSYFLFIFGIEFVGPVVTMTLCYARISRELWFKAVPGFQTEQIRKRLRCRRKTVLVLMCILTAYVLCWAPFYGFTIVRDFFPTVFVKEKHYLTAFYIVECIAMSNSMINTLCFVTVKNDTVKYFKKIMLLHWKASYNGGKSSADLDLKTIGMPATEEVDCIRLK
Sequence of CALCR-RAMP3 (P30988 25-474): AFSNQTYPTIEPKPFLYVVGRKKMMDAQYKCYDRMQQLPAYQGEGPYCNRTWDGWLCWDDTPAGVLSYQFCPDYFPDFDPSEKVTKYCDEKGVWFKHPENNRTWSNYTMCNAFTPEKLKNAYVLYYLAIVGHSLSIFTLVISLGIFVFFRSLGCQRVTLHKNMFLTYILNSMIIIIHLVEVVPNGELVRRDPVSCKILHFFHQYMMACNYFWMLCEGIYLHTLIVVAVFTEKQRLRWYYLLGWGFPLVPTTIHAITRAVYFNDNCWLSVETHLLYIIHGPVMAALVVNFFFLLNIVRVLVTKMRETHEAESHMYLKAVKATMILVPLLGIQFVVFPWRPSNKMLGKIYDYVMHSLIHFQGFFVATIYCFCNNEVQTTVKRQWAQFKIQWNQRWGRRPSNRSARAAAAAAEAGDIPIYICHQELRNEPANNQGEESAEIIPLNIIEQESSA
Sequence of CALCR-RAMP3 (O60896 24-148 partner): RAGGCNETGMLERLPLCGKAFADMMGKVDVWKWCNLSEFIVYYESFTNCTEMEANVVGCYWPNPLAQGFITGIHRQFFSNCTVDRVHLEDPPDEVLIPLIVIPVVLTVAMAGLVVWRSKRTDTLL
Sequence of CALCRL-RAMP2 (Q16602 23-461): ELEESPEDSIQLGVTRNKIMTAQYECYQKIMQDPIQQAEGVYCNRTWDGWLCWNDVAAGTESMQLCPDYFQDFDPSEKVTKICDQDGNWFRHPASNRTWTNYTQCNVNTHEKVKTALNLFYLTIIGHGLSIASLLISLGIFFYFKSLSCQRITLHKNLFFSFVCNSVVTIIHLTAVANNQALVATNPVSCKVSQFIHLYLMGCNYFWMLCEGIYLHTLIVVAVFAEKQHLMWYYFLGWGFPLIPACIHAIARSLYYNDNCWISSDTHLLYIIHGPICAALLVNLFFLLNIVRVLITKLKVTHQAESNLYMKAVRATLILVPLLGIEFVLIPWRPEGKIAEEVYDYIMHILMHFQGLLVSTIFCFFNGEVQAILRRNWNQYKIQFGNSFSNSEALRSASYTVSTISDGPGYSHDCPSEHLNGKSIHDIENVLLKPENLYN
Sequence of CALCRL-RAMP2 (O60895 43-175 partner): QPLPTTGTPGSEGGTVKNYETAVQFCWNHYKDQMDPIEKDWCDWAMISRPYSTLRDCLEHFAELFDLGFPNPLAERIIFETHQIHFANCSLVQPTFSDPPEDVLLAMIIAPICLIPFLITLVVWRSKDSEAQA
Sequence of CALCRL-RAMP1 (Q16602 23-461): as the sequence (Q16602 23-461) above
Sequence of CALCRL-RAMP1 (O60894 27-148 partner): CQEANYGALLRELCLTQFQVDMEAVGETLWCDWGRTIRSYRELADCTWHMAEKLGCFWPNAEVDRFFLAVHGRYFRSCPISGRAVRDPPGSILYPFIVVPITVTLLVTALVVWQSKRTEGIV
T29 sequence (P51684 whole entry): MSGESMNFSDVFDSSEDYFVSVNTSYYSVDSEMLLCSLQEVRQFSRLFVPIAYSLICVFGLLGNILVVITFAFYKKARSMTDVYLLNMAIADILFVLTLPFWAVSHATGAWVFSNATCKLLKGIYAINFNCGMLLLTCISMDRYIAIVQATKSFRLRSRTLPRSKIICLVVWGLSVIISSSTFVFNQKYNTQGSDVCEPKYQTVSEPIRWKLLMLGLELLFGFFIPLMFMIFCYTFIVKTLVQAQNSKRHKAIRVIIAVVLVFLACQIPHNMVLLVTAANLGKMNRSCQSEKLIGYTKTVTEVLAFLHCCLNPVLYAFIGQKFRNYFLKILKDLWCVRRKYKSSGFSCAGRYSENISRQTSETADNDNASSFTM

Compound: CC(=O)N[C@@H](CCCC#C/C=C/Cl)CCCCCCC(Cl)Cl [Compound 4, taveuniamide F]
- inhibition at 20 µM (HTR1F): 41.7%
- inhibition at 20 µM (GPR109B): 36.1%
- inhibition at 20 µM (EBI2): 18%
- inhibition at 20 µM (CXCR6): 33.1%
- inhibition at 20 µM (OPRK1): 20.1%
- inhibition at 20 µM (RXFP3): 32.8%
- inhibition at 20 µM (HTR1E): 26.8%
- inhibition at 20 µM (CCR10): 33.3%
- inhibition at 20 µM (CALCRL-RAMP1): 31.2%
- inhibition at 20 µM (ADRA1B): 22.9%
- inhibition at 20 µM (OXER1): 18.1%
- inhibition at 20 µM (F2R): 11.7%
- inhibition at 20 µM (SCTR): 16.9%
- inhibition at 20 µM (SSTR3): 41.3%
- inhibition at 20 µM (CALCR-RAMP3): 3.1%
- inhibition at 20 µM (AGTRL1): 6.8%
- inhibition at 20 µM (PTGFR): 43.1%
- inhibition at 20 µM (GIPR): 23.3%
- inhibition at 20 µM (CMKLR1): 21.4%
- inhibition at 20 µM (GPR109A): 5.5%
- inhibition at 20 µM (CCKBR): 10.2%
- inhibition at 20 µM (CCR5): 14.7%
- inhibition at 20 µM (NMBR): 39.7%
- inhibition at 20 µM (C5L2): 24.1%
- inhibition at 20 µM (TRHR): 42.8%
- inhibition at 20 µM (GALR2): 23.1%
- inhibition at 20 µM (PROKR1): 37.6%
- inhibition at 20 µM (OPRM1): -1%
- inhibition at 20 µM (DRD4): 20.8%
- inhibition at 20 µM (BDKRB1): 26.2%
- inhibition at 20 µM (F2RL3): 59.2%
- inhibition at 20 µM (NPY2R): 0.5%
- inhibition at 20 µM (CRTH2): 16.9%
- inhibition at 20 µM (CCR6): 58.2%
- inhibition at 20 µM (CALCRL-RAMP2): 13.6%
- inhibition at 20 µM (SSTR2): -0.1%
- inhibition at 20 µM (MC3R): 19.7%
- inhibition at 20 µM (CXCR7): 3.6%
- inhibition at 20 µM (NPFFR1): 27.9%
- inhibition at 20 µM (DRD3): 9.6%
- inhibition at 20 µM (CHRM2): 36.7%
- inhibition at 20 µM (LHCGR): 56.3%
